Test results as given in patent publication US9737517B2, “Pharmaceutical use of hexahydro-dibenzo[a,g]quinolizine compounds” (SHANGHAI INSTITUTE OF MATERIA MEDICA, CHINESE ACADEMY OF …, priority 2013, dated 2017).

Key:
α1A-AR [1] = target: T1, α1A-AR (Homo sapiens, UniProt P35348); assay: Calcium mobilization (Fluo-4) antagonism of phenylephrine in HEK293 cells expressing α1A-AR/Gα16; type: cell-based; details: for IC50: HEK293 α1A-AR/Gα16, calcium mobilization, phenylephrine 30 nM; for α1B/α1A: ratio of cell IC50 values, calcium mobilization
T1 construct: expressed in transfected cells; host or cells: HEK293
T1 sequence (P35348 1-466): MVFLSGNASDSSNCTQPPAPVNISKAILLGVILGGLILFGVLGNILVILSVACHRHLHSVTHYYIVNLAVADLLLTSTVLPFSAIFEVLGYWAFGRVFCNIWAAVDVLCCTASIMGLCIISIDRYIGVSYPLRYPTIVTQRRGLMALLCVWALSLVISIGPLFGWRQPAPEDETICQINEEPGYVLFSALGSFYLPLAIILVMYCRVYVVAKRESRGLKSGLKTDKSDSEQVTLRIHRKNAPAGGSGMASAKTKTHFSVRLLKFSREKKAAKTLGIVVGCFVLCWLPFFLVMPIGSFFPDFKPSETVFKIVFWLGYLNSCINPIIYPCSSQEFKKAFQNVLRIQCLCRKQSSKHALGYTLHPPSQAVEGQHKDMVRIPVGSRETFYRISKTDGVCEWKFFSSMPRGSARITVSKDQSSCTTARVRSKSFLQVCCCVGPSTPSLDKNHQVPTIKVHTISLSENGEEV
Experimental: (§1) HEK293 cells stably expressing α1A-AR/Gα16, α1B-AR/Gα16, α1D-AR/Gα16 were seeded in a 96-well plate, and cultured for 24 hours. Then the medium was removed and 40 μL Hank's balanced salt solution (HBSS: containing 5.4 mM KCl, 0.3 mM Na2HPO4, 0.4 mM KH2PO4, 4.2 mM NaHCO3, 1.3 mM CaCl2, 0.5 mM MgCl2, 0.6 mM MgSO4, 137 mM NaCl, 5.6 mM D-glucose, and 250 μM sulfinpyrazone, pH 7.4) containing 2 μM Fluo-4 AM was added into each well, and incubated at 37° C. for 45 min. Dye was removed and 50 μL of HBSS containing either test compound or 1% DMSO (negative control) was added. After incubation at room temperature for 10 min, Flex Station 3 microplate reader was used to read the value. At specified time points, 25 μL of agonist (phenylephrine, final concentration 30 nM) was dispensed into the well automatically using the reader and fluorescence intensity change of dye caused by intracellular calcium concentration change was detected at an excitation wavelength of 485 nm and an emission wavelength of 525 nm.
(§2) After incubation with different drugs, the reaction rate of cells to 1-AR agonist phenylephrine was calculated as follows: Reaction rate %=(D−B)/(S−B)*100%;
(§3) The reaction rate of the same drug at different doses was tested using GraphPad Prism software by non-linear regression analysis, and the dose-response curve was obtained and IC50 values was measured. Data were obtained from three separate experiments, and each experiment included three duplicate wells.

α1B-AR [2] = target: T2, α1B-AR (Homo sapiens, UniProt P35368); assay: Calcium mobilization (Fluo-4) antagonism of phenylephrine in HEK293 cells expressing α1B-AR/Gα16; type: cell-based; details: phenylephrine 30 nM
T2 construct: expressed in transfected cells; host or cells: HEK293
T2 sequence (P35368 1-520): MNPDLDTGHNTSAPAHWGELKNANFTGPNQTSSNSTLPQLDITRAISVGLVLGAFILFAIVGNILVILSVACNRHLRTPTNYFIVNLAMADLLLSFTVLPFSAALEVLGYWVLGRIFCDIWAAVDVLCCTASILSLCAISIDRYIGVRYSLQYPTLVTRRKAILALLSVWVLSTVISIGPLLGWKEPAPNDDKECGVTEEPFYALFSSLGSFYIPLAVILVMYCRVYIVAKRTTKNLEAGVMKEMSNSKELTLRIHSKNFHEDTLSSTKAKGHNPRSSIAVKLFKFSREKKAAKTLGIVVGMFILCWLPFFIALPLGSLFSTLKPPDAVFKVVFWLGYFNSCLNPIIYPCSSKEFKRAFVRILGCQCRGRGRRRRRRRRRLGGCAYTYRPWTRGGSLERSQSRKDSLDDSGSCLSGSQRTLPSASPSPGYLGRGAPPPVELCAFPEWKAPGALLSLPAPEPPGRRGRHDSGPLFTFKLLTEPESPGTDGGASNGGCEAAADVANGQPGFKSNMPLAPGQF
Experimental: as §1, §2, §3

α1D-AR = target: T3, α1D-AR (Homo sapiens, UniProt P25100); assay: Calcium mobilization (Fluo-4) antagonism of phenylephrine in HEK293 cells expressing α1D-AR/Gα16; type: cell-based; details: phenylephrine 30 nM
T3 construct: expressed in transfected cells; host or cells: HEK293
T3 sequence (P25100 1-572): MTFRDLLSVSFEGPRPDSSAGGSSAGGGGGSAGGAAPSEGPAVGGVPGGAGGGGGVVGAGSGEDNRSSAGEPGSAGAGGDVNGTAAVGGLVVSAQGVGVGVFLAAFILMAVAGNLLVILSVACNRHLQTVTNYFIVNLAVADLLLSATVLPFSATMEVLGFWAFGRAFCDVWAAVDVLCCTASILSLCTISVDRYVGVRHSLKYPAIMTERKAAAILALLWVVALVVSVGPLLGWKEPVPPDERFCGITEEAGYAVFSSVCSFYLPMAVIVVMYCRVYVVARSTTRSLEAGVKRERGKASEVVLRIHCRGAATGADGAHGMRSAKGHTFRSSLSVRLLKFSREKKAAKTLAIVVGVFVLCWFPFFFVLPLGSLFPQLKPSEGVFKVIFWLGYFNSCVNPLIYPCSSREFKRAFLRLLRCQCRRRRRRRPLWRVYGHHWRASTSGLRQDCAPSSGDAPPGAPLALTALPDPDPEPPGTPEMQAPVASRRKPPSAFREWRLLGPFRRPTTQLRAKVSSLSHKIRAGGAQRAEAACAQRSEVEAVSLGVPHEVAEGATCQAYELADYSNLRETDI
Experimental: as §1, §2, §3

α1A-AR [3] = target: T1, α1A-AR; assay: Tag-lite receptor binding assay, HEK293 cells expressing SNAP-α1A-AR
Text: (§4) Tag-lite assay was used to study receptor binding activity. Tag-lite assay was a combination of SNAP-Tag and HTRF technology, and was used to analyze surface receptors on live cell. SNAPs were small tag fusion proteins which could irreversibly, specifically and covalently bind to substrates via benzylmethyl, and the substrates were benzylmethyl guanine and benzylmethyl cytosine. Substrates and various dyes formed derivatives, and through covalent reaction, the dye was labeled onto SANPs. Plasmid was constructed using pSNAP and α1-AR encoding gene. After transfection into cells, N-terminal fusion protein of SNAP and α1-AR was expressed. The substrate and HTRF fluorescent dye (donor compound Lumi4-Tb) formed a derivative which reacted with SANP-α1-AR fusion protein so that Tb was labeled onto α1-AR. After adding acceptor fluorescent dye-labeled ligand, the receptor and ligand binding experiment was performed.
(§5) HEK293 cells stably expressing SNAP-α1A-AR, SNAP-α1B-AR, SNAP-α1D-AR were seeded in 3 cm dishes, and cultured for 24 hours. 100 nM Tag-lite SNAP Lumi4Tb was added and incubated for 1 h in an incubator. Cells were detached and washed with a labeling buffer for 4 times, and then was added into a 384-well plate in a volume of 10 μL per well. […] After incubation at room temperature for 1 hour, fluorescence intensity changes caused by cell receptor and ligand changes were detected using 665 nm (acceptor) and 620 nm (donor) at same time.
(§6) After incubation with different drugs, the reaction rate of cells to 1-AR fluorescein-labeled known ligand was calculated as follows: Reaction rate %=(D−B)/(S−B)*100%
as §3, with “Ki” for “IC50”, “includes” for “included”

α1B-AR [4] = target: T2, α1B-AR; assay: Tag-lite receptor binding assay, HEK293 cells expressing SNAP-α1B-AR
Text: as §4, §5, §6
as §3, with “Ki” for “IC50”, “includes” for “included”

urethra smooth muscle = assay: In vitro urethra smooth muscle experiment (norepinephrine-induced contraction); set-up: species or system Wistar rats; Urethra inhibition rate (%): concentration or dose not given beside the values; details: for IC50: isolated rat prostatic urethra, norepinephrine 3×10^−4 mol/L; for Urethra inhibition rate (%): isolated rat urethra, norepinephrine-induced contraction; for Aorta/Urethra: selectivity ratio of IC50 values, isolated rat tissues
Experimental: Healthy male Wistar rats were hit head to cause faint. The abdominal cavity and the pubic symphysis was quickly cut so as to quickly remove the prostatic urethra, which was immediately placed into a dish filled with 4° C. Kerbs-Henseleit solution (K-H solution). The surrounding tissue were carefully separated, and muscle strips about 3-5 mm were obtained, and the lower end was fixed onto a 20 mL of thermostatic bath and the upper end was connected onto a pressure transducer. Nutrient liquid was K-H solution, and carbogen (95% oxygen and 5% carbon dioxide) was aerated, and the bath temperature was 37° C., and resting tension applied was 0.5 g. The nutrient liquid was replaced every 6-8 mins. Until baseline stabilized, norepinephrine was added with a final concentration of 3×10^−4 mol/L in bath tube. When the contraction curve reached the highest point, it was rinsed immediately to recover to baseline levels. When baseline was stabilized, test drug with different concentrations was added respectively, and incubated 3-5 mins. 60 μL 1×10^−1 M norepinephrine was added with a final concentration of 3×10^−4 mol/L in bath tube, and the contraction curve was recorded.

[5] = tested on: vascular smooth muscle (thoracic aorta); assay: In vitro vascular smooth muscle experiment (norepinephrine-induced contraction of thoracic aorta rings); set-up: species or system Wistar rats; details: isolated rat thoracic aorta rings, norepinephrine 10^−7 mol/L
Experimental: Healthy male Wistar rats were hit head to cause faint. The abdominal cavity was quickly cut, and the thoracic aorta was taken out. The attached tissue was separated and cut into 2-3 mm vascular rings. The experiment was carried out in the same manner as in urethral smooth muscle experiment. The resting tension applied was 1 g, and when baseline was stabilized, norepinephrine was added with a final concentration of 10^−7 mol/L in bath tube. When the contraction curve reached the highest point, rinse was performed immediately to recover to baseline levels. When baseline was stabilized, test drug with different concentrations was added respectively, and incubated 3-5 mins. 20 μL 1×10^−4 M norepinephrine was added with a final concentration of 10^−7 mol/L in bath tube, and contraction curve was recorded.

Row | SMILES | IC50 (α1A-AR [1]) [nM] | α1B/α1A (α1A-AR [1]) | IC50 (α1B-AR [2]) [nM] | IC50 (α1D-AR) [nM] | IC50 (α1A-AR [3]; Tag-lite binding, HEK293 SNAP-α1A-AR) [nM] | α1B/α1A (α1A-AR [3]; ratio of Tag-lite binding values) | IC50 (α1B-AR [4]) [nM] | IC50 (urethra smooth muscle) [nM] | Urethra inhibition rate (%) (urethra smooth muscle) | Aorta/Urethra (urethra smooth muscle) | IC50 [5] [nM]
1 | COc1cc2c(cc1OC)CN1CCc3cc(OC)c(OC)cc3C1C2 (centres unmarked) [DC037001] | 123 | 1.4 | 174 | 8710 | – | – | – | – | – | – | –
2 | COc1cc2c(cc1OC)[C@@H](C)N1CCc3cc(OC)c(OC)cc3[C@@H]1C2 [DC037002] | 502 | 34.2 | 17200 | 2520 | – | – | – | – | – | – | –
3 | COc1cc2c(cc1OC)CN1CCc3cc(OC)c(OC)cc3[C@@H]1C2 [DC037003] | 91.3 | 2731 | 249000 | 2480 | – | – | – | – | – | – | –
4 | COc1ccc2c(c1)CCN1Cc3cc(OC)c(OC)cc3C[C@@H]21 [DC037004] | 93.9 | 2.0 | 189 | 422 | – | – | – | – | – | – | –
5 | COc1cc2c(cc1OC)[C@@H]1Cc3cc4c(cc3CN1CC2)OCO4 [DC037005] | 160 | 10.3 | 1650 | 2950 | – | – | – | – | – | – | –
6 | COc1ccc(OC)c2c1C[C@H]1c3cc4c(cc3CCN1C2)OCO4 [DC037007] | 969 | 13.4 | 13000 | 75.8 | – | – | – | – | – | – | –
7 | COc1cc2c(cc1OC)C1Cc3cc4c(cc3CN1CC2)OCO4 (centres unmarked) [DC037008] | 552 | 125 | 68800 | 2120 | – | – | – | – | – | – | –
8 | COc1cc2c(c(OC)c1OC)CN1CCc3cc4c(cc3[C@@H]1C2)OCO4 [DC037010] | 238 | 5.0 | 1200 | 2560 | – | – | – | – | – | – | –
9 | COc1cc2c(cc1OC)[C@@H]1Cc3cc(C)cc(C)c3CN1CC2 [DC037011] | 532 | 64.4 | 34300 | 2640 | – | – | – | – | – | – | –
10 | COc1cc2c(cc1OC)CN1CCc3cc4c(cc3C1C2)OCO4 (centres unmarked) [DC037012] | 257 | 29.2 | 7520 | 242 | – | – | – | – | – | – | –
11 | COc1cc2c(cc1O)[C@@H]1Cc3cc4c(cc3CN1CC2)OCO4 [DC037013] | 268 | 16.1 | 4310 | 263 | – | – | – | – | – | – | –
12 | COc1cc2c(cc1OCc1ccccc1)CN1CCc3cc4c(cc3[C@@H]1C2)OCO4 [DC037014] | 303 | 118.5 | 35900 | 1340 | – | – | – | – | – | – | –
13 | COc1cc2c(cc1OCC(F)F)C[C@H]1c3cc4c(cc3CCN1C2)OCO4 [DC037018] | – | – | – | – | 0.95 | 51.2 | 48.6 | 147 | 61 | 61 | 2210
14 | CCOc1ccccc1OCCN[C@H](C)Cc1ccc(OC)c(S(N)(=O)=O)c1 [Tamsulosin, reference compound] | – | – | 3.08 | 0.18 | – | – | 0.16 | 0.47 | 82 | 0.53 | 0.25
